In patent publication US6479628B1, “Methods and materials relating to IMPDH and GMP production” (Arch Development Corporation, priority 1988, dated 2002):

Experiments:
[1] = system: V79 cells; experiment: Growth of control and MNNG-treated V79 cells incubated with MPA; assay type: cell-based, Chinese hamster; settings: untreated 5.0±0.3
[2] = system: parental V79 cells; experiment: Resistance of parental cells to MPA cytotoxicity; assay type: cell-based, Chinese hamster
[3] = system: VM1 through VM4 variants of V79 cells; experiment: Resistance of stepwise-selected cell variants to MPA cytotoxicity; assay type: cell-based, Chinese hamster
Description: According to the present invention, the resistance level of one of these cell variants was further increased by a stepwise selection in the presence of increasing concentrations of MPA. After adaptation to the higher concentration of MPA, the cells were seeded in medium containing an increased concentration of MPA at 200 cells per 60-mm petri dish, and MPA-resistant colonies were isolated 8 days later.

[4] = system: IMP1 cell clone (transfected V15 hamster cells); settings: mycophenolic acid 2 μg/mL in culture medium
Description: After introduction of the construct into the hamster cells, mycophenolic acid (2 μg/mL) was added to the culture medium to select for those cells that had integrated the construct into their genetic material. Those cells that have integrated the construct into their genetic material produce the IMPDH enzyme and are therefore resistant to the cytotoxic effects of mycophenolic acid.
[Dulbecco's modified MEM containing 5% fetal bovine serum, aminopterin (2 μg/mL), and mycophenolic acid (25 μg/mL), and supplemented with hypoxanthine (15 μg/mL), thymidine (10 μg/mL), and xanthine (250 μg/mL)]. The ability of the cells to grow in the selective medium is attributable to the production of the E. coli gpt enzyme, which catalyzes the production of xanthine monophosphate from the reaction of xanthine and phosphoribosyl pyroposphate. Presence of the enzyme compensates for the purine de novo synthetic block imposed by the presence of aminopterin and MPA.

[5] = target: E. coli IMPDH enzyme (Escherichia coli, UniProt P0ADG7); settings: unlike mammalian cell enzymes; cited from earlier work
Chain of E. coli IMPDH enzyme (P0ADG7 whole entry): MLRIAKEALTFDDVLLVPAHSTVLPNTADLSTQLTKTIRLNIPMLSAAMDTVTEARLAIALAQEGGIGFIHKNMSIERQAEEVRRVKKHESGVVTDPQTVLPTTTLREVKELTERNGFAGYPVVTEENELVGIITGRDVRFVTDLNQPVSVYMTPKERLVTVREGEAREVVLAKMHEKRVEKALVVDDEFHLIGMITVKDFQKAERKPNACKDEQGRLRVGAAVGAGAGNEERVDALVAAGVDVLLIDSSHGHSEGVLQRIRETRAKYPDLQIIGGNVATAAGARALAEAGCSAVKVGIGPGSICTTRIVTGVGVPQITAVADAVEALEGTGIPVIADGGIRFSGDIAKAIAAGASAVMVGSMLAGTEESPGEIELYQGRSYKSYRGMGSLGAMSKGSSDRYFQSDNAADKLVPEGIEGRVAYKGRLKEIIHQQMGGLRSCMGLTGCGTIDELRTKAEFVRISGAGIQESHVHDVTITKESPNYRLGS

[6] = target: purified Chinese hamster IMPDH (Cricetulus griseus, UniProt P12269); experiment: Kinetic studies of purified IMPDH (IMP-dependent NAD reduction, absorbance at 340 nm)
Chain of purified Chinese hamster IMPDH (P12269 whole entry): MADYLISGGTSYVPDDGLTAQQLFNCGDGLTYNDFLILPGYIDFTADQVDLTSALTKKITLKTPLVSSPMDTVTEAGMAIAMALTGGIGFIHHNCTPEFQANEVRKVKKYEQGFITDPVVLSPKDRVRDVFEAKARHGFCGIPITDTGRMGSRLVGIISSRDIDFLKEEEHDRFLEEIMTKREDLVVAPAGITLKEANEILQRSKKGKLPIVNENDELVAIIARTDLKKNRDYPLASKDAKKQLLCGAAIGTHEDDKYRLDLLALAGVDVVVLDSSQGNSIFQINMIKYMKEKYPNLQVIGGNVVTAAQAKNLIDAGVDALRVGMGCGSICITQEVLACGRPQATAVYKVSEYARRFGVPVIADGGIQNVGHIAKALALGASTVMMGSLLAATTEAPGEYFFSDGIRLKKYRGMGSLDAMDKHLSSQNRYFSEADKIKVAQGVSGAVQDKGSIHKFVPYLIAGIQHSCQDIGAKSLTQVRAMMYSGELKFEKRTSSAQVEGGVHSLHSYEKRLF
Description: Kinetic studies were carried out by varying the substrate conditions. In all cases, linear reciprocal plots were defined by simple regression analysis of the data.

Row | Structure (SMILES) | cells per Petri dish after 5 days of growth, mean (±SD) ([1]; MPA at 0.1 μg/mL) | cells per Petri dish after 5 days of growth, mean (±SD) ([1]; MPA at 0.3 μg/mL) | MPA concentration to which cells are resistant [2] [µg/mL] | MPA concentration to which cells are resistant ([3]; VM1 variant) [µg/mL] | MPA concentration to which cells are resistant ([3]; VM2 variant) [µg/mL] | MPA concentration to which cells are resistant ([3]; VM3 variant) [µg/mL] | MPA concentration to which cells are resistant ([3]; VM4 variant) [µg/mL] | resistance of cell clone to cytotoxic effects [4] | sensitivity to the inhibitory effect [5] | Ki ([6]; sensitivity of Chinese hamster enzyme to MPA) | Km ([6]; substrate of Chinese hamster enzyme, linear reciprocal plots) [µM]
1 | COc1c(C)c2c(c(O)c1C/C=C(\C)CCC(=O)O)C(=O)OC2 [MPA, mycophenolic acid] | 1.4±0.2 ×10^6 cells per Petri dish | 0.2±0.05 ×10^6 cells per Petri dish | 0.1 | 5 | 10 | 25 | 50 | resistant | insensitive | nanomolar range | –
2 | NC(=O)c1ccc[n+]([C@@H]2O[C@H](COP(=O)([O-])OP(=O)(O)OC[C@H]3O[C@@H](n4cnc5c(N)ncnc54)[C@H](O)[C@@H]3O)[C@@H](O)[C@H]2O)c1 [NAD] | – | – | – | – | – | – | – | – | – | – | 29
